These results are taken from patent publication US11772141B1, “Method for targeted regulation of soil microbes to synchronize heavy metal/metalloid transformation and greenhouse gas emission reduction and use” (priority 2022, dated 2023).

Structures are written as SMILES.

In one experiment the test system is mcrA gene. Particulars: soil control 1.5*10^6.
The subject of another experiment is arsM gene. Conditions: soil control 950.
Another experiment concerns soil microbes. Conditions: Met 1 mM, Met:Fat 1:10 in combinations.

Experimental for arsM gene: Construction of the plasmid standard was performed by ligating a vector pUC19 with a PCR product of arsM or mcrA gene. After a single clone was picked, plasmid DNA was extracted, the DNA concentration was measured with Qubit 3.0 Fluorometer, the gene copy number was calculated, and then the EASY dilution solution was diluted to 10^2-10^8(copy number per μL) to obtain a Standard curve. […] Information and reaction procedures of the primers used for amplification of the arsM and mcrA genes were as follows:
arsM amplification reaction program: at 95° C. for 10 min; at 95° C. for 30 s, at 60° C. for 45 s, and at 72° C. for 1 min, 40 cycles; and prolonging at 72° C. for 10 min;
Experimental for mcrA gene: Construction of the plasmid standard was performed by ligating a vector pUC19 with a PCR product of arsM or mcrA gene. After a single clone was picked, plasmid DNA was extracted, the DNA concentration was measured with Qubit 3.0 Fluorometer, the gene copy number was calculated, and then the EASY dilution solution was diluted to 10^2-10^8(copy number per μL) to obtain a Standard curve.
mcrA amplification reaction program: at 95° C. for 10 min; at 95° C. for 15 s, at 58° C. for 30 s, and at 72° C. for 30 s, 40 cycles; and prolonging at 72° C. for 2 min.
Experimental for soil microbes: 5 grams of arsenic-contaminated rice field soils taken from Hunan Province, China was placed into a 20 mL glass sample tube, 2.5 mL of sterilized culture medium was added, and then the glass sample tube was placed in an anaerobic glove box for cultivation. The culture medium was composed of 10 mM NH4Cl, 5 mM NaHCO3, 1 mM KH2PO4, 0.5 mM MgCl2, 0.5 CaCl2, 1 mL of L^−1 vitamin and 1 mL/L of trace elements. […] After addition of the Met and the Fat and after further reaction for 60 days, headspace gas was collected and measured by GC-TCD, a soil suspension was extracted, and ammonium dihydrogen phosphate was added to desorb adsorbed methyl arsenic. After the resulted soil suspension passed through a 0.22-micron membrane, methyl arsenic, including monomethylarsenic, dimethylarsenic and trimethylarsenic oxides, in a soil solution was measured by HPLC-ICPMS. […]
After further anaerobic culture for 60 days, headspace gas was collected and measured by GC-TCD, a soil suspension was extracted, and ammonium dihydrogen phosphate was added to desorb adsorbed methyl arsenic. After the resulted soil suspension passed through a 0.22-micron membrane, the methyl arsenic in the soil solution was measured by HPLC-ICPMS.

Consider `CSCC[C@H](N)C(=O)O` [methionine], for which, in the experiment with mcrA gene, the “transcript copy number of mcrA” value was 2.0*10^7 copies per g of soils. Besides, in the experiment with arsM gene, the “transcript copy number of arsM” value is 1200 copies per g of soils. In addition, in the experiment on soil microbes (60 days anaerobic reaction), the “production of methyl arsenic” value stood at 0.1 µM. Moreover, the methane emission in the experiment on soil microbes (60 days, control group 5.5 mM) is 18.7 mM.
